Some test systems named below: NCI-H23; SK-MEL-5; NCI/ADR-RES; EKVX; MOLT-4; HCT-116; SR; SF-539; HCT-15; T47D; Malme-3M; UACC-62; NCI-H226; U-251; SNB-75; SF-268; SK-MEL-28; DLD-1; M14; BT-549.
What all share (test): NCI tumour cell line growth inhibition, 48 h

Structures are written as SMILES.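 Protocol summary: plate cells (96-well), add compound at 5 concentrations, incubate 48 h, interpolate endpoints linearly. GI50: concentration for 50% inhibition of growth.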 Calls of active or inactive are those of the source. Cut-off read from the data, not from the text of the source: active = GI50 up to about 1.1 µM and inactive = higher. Some results are limits rather than exact numbers.

For `COc1ncnc2c(NC3OC(CO)C(O)C3O)ncnc12` (configuration not stated), the GI50 is 0.24 µM (active) in the experiment on NCI-H23; 1.19 µM (inactive) in the experiment on SK-MEL-5; 0.417 µM (active) with NCI/ADR-RES; 0.596 µM (active) with EKVX; 0.0471 µM (active) in the experiment with MOLT-4; 0.0541 µM (active) in the experiment with HCT-116. The GI50 with SR is 0.0266 µM (active); with SF-539, 0.246 µM (active); in the experiment with HCT-15 it was 0.179 µM; with T47D it was 0.708 µM (active); in the experiment with Malme-3M, 2.74 µM (inactive); in the experiment with UACC-62, 0.299 µM (active). In addition, the GI50 was 0.335 µM (active) in the experiment on NCI-H226; 2.51 µM (inactive) in the experiment with U-251; 0.735 µM (active) with SNB-75; 0.506 µM (active) with SF-268; 6.89 µM (inactive) in the experiment on SK-MEL-28; 0.306 µM (active) with DLD-1. For the same molecule, the GI50 in the experiment with M14 was 0.296 µM (active).

For `N#CC(C(=O)C(=O)Nc1ccc(Cl)cc1)c1ccccc1` (configuration not stated), the GI50 with NCI-H23, with SK-MEL-5, with EKVX, with MOLT-4, with HCT-116 and in the experiment on SR was > 100 µM (inactive) each time. For the same molecule, the GI50 in the experiment with SF-539 was > 100 µM (inactive); with HCT-15, more than 100 µM; with Malme-3M it was > 100 µM (inactive); in the experiment with UACC-62 it was 22.6 µM (inactive); in the experiment with NCI-H226, > 100 µM (inactive); in the experiment on U-251, > 100 µM (inactive). Moreover, the GI50 in the experiment with SNB-75, in the experiment on SF-268, in the experiment on SK-MEL-28, in the experiment on DLD-1 and in the experiment with M14 was > 100 µM (inactive) throughout.

As for `COc1ccc(/C=C2\N=C(c3ccccc3)OC2=O)c(OCc2ccccc2)c1`, the GI50 in the experiment on SK-MEL-5 was 19.8 µM (inactive); with EKVX, > 100 µM (inactive); in the experiment on MOLT-4, 14.1 µM (inactive); in the experiment on HCT-116 it was 49.3 µM (inactive); in the experiment on SR it was 21.7 µM (inactive); in the experiment with SF-539, 24 µM (inactive). Further, the GI50 was 39.4 µM (inactive) in the experiment with Malme-3M; 19.7 µM (inactive) with UACC-62; 53.2 µM (inactive) in the experiment with NCI-H226; 54.2 µM (inactive) in the experiment on SF-268; > 100 µM (inactive) with SK-MEL-28; 17.7 µM (inactive) in the experiment with DLD-1. The GI50 in the experiment with M14 is 49.7 µM (inactive).

Regarding `O=C(Cc1nc2ccccc2o1)C(=O)Nc1cccc(Cl)c1`, the GI50 with NCI-H23, with EKVX, with MOLT-4, with HCT-116, in the experiment with SR and in the experiment with SF-539 was > 100 µM (inactive) in each case. The GI50 with HCT-15 was more than 100 µM; in the experiment with Malme-3M, > 100 µM (inactive); in the experiment with UACC-62, > 100 µM (inactive); with NCI-H226, > 100 µM (inactive); in the experiment on U-251, > 100 µM (inactive); in the experiment on SNB-75, > 100 µM (inactive). In addition, the GI50 in the experiment on SF-268, in the experiment on SK-MEL-28, in the experiment with DLD-1 and with M14 was > 100 µM (inactive) each time.

On to `CN(C)CCCn1cnc2ncccc2c1=O`, for which the GI50 in the experiment on NCI-H23, with SK-MEL-5, in the experiment on EKVX, with MOLT-4, in the experiment on HCT-116 and with SR was > 100 µM (inactive) in each case. In addition, the GI50 in the experiment on SF-539, with Malme-3M, in the experiment with UACC-62, with NCI-H226, in the experiment on U-251 and in the experiment on SNB-75 was > 100 µM (inactive) each time. The GI50 in the experiment on SF-268, in the experiment with SK-MEL-28, in the experiment on DLD-1 and with M14 was > 100 µM (inactive) throughout.

As for `CC1(C)CC(=O)C(/C(=N/NC(=S)NN)C(=O)Nc2nc3ccc([N+](=O)[O-])cc3s2)C(=O)C1`, the GI50 in the experiment with NCI-H23 was > 100 µM (inactive); with SK-MEL-5 it was > 100 µM (inactive); in the experiment with EKVX it was > 100 µM (inactive); with MOLT-4, 55.1 µM (inactive); with HCT-116, > 100 µM (inactive); in the experiment on SR, > 100 µM (inactive). Besides, the GI50 in the experiment on SF-539 is > 100 µM (inactive); with HCT-15 it was more than 100 µM; in the experiment with Malme-3M, > 100 µM (inactive); in the experiment with UACC-62 it was > 100 µM (inactive); in the experiment on NCI-H226, 55.5 µM (inactive); in the experiment with U-251, > 100 µM (inactive). In addition, the GI50 with SNB-75, in the experiment with SF-268, in the experiment on SK-MEL-28, in the experiment with DLD-1 and with M14 was > 100 µM (inactive) throughout.

As to `Cc1nc(=O)n2c(C)n[nH]c2c1C(=O)O`, the GI50 with NCI-H23 was > 100 µM (inactive); in the experiment on SK-MEL-5, 10 µM (inactive); in the experiment with EKVX, > 100 µM (inactive); in the experiment on MOLT-4, > 100 µM (inactive); in the experiment with HCT-116, > 100 µM (inactive); in the experiment with SR, > 100 µM (inactive). In addition, the GI50 in the experiment with SF-539 was > 100 µM (inactive); in the experiment with HCT-15, more than 100 µM; in the experiment with Malme-3M it was > 100 µM (inactive); with UACC-62, > 100 µM (inactive); in the experiment on NCI-H226 it was > 100 µM (inactive); with U-251, > 100 µM (inactive). Besides, the GI50 in the experiment with SF-268, with SK-MEL-28, in the experiment with DLD-1 and in the experiment on M14 was > 100 µM (inactive) each time.

Consider `O=C(/C=C/c1ccc(O)c(O)c1)OC1C[C@@](O)(C(=O)O)C[C@@H](O)[C@H]1OC(=O)/C=C/c1ccc(O)c(O)c1` (some centres not stated), for which the GI50 with NCI-H23, in the experiment with SK-MEL-5, with EKVX, in the experiment on MOLT-4, in the experiment with HCT-116 and in the experiment on SR was > 100 µM (inactive) in each case. Further, the GI50 in the experiment on SF-539 was > 100 µM (inactive); in the experiment with HCT-15, more than 100 µM; in the experiment on Malme-3M, > 100 µM (inactive); in the experiment with UACC-62, > 100 µM (inactive); with NCI-H226, > 100 µM (inactive); with U-251, > 100 µM (inactive). Moreover, the GI50 with SF-268, in the experiment with SK-MEL-28, with DLD-1 and in the experiment on M14 was > 100 µM (inactive) throughout.

As to `COC(=O)C1=Cc2cc3c(cc2[C@H](c2ccc4c(c2)OCO4)C1C(=O)OC)OCO3` (some centres not stated), the GI50 with NCI-H23 was > 100 µM (inactive); in the experiment on SK-MEL-5, 46.6 µM (inactive); in the experiment on EKVX, 46.8 µM (inactive); in the experiment with MOLT-4 it was 35.6 µM (inactive); in the experiment on HCT-116, 41.7 µM (inactive); with SR it was 59.4 µM (inactive). Besides, the GI50 in the experiment on SF-539 is > 100 µM (inactive); in the experiment on HCT-15, more than 100 µM; in the experiment on Malme-3M it was > 100 µM (inactive); in the experiment on UACC-62, 58.6 µM (inactive); in the experiment on NCI-H226, > 100 µM (inactive); in the experiment with U-251, 61.4 µM (inactive). For the same molecule, the GI50 is 44.8 µM (inactive) with SNB-75; > 100 µM (inactive) in the experiment with SF-268; > 100 µM (inactive) with SK-MEL-28; 54.5 µM (inactive) in the experiment on DLD-1; 68.1 µM (inactive) in the experiment with M14.

Turning to `CCCCCCCCCCCC[C@@H](O)[C@H]1CC[C@H]([C@H](O)CCCC[C@H](O)CCCCC[C@@H](O)CC2=C[C@H](C)OC2=O)O1`, the GI50 in the experiment on NCI-H23 was 0.034 µM (active); in the experiment with BT-549 it was 10 µM (inactive); in the experiment with SK-MEL-5, 0.0143 µM (active); in the experiment on NCI/ADR-RES it was 1.25 µM (inactive); with EKVX, 0.562 µM (active); in the experiment on MOLT-4 it was 0.363 µM (active). Also, the GI50 in the experiment with HCT-116 is 0.135 µM (active); with SR it was 2.54 µM (inactive); in the experiment with SF-539, 2.97 µM (inactive); in the experiment with HCT-15 it was 2.39 µM; in the experiment with T47D it was 2.39 µM (inactive); with Malme-3M it was 2.09 µM (inactive). For the same molecule, the GI50 in the experiment with UACC-62 is 1.87 µM (inactive); in the experiment with NCI-H226, 3.11 µM (inactive); in the experiment on U-251, 2.78 µM (inactive); in the experiment with SNB-75, 2.92 µM (inactive); in the experiment on SF-268, 1.86 µM (inactive); with SK-MEL-28, 2.8 µM (inactive). Also, the GI50 in the experiment with DLD-1 was 2.67 µM (inactive); in the experiment with M14 it was 2.45 µM (inactive).

Values taken from ChEMBL document CHEMBL1201862, “PubChem BioAssay data set” (2004).
